Measurements: the supplement of paper PMC10307832

Columns and labels:
Assay in all cases: relative viability (nuclei count vs DMSO), 5 days (fraction); higher = more cells survive
CX-5461 + Decitabine = compound: Cc1cnc(CNC(=O)c2c(=O)c3ccc(N4CCCN(C)CC4)nc3n3c2sc2ccccc23)cn1 [CX-5461] + Nc1ncn([C@H]2C[C@H](O)[C@@H](CO)O2)c(=O)n1 [Decitabine] (partner 2 µM)
How it was run: (§1)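 After 5 days of treatment, lung cancer cells in 1536-well plates were fixed and stained in a single step (final 0.05% Triton X-100, 1% formaldehyde, 1 ug/ml Hoechst) and their nuclei counted on 4× images. Treatment had been applied by pin tool the day after seeding as one drug alone or as a fixed anchor-drug dose with five library-drug doses (not always all listed) in √10 steps. Relative viability is the nuclei count of treated wells divided by that of vehicle wells, and values are medians of duplicate plates.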

IMD-0354 + Decitabine = compound: O=C(Nc1cc(C(F)(F)F)cc(C(F)(F)F)c1)c1cc(Cl)ccc1O [IMD-0354] + Nc1ncn([C@H]2C[C@H](O)[C@@H](CO)O2)c(=O)n1 [Decitabine] (partner 2 µM)
How it was run: as §1

IMD-0354 + Navitoclax = compound: O=C(Nc1cc(C(F)(F)F)cc(C(F)(F)F)c1)c1cc(Cl)ccc1O [IMD-0354] + CC1(C)CCC(c2ccc(Cl)cc2)=C(CN2CCN(c3ccc(C(=O)NS(=O)(=O)c4ccc(N[C@H](CCN5CCOCC5)CSc5ccccc5)c(S(=O)(=O)C(F)(F)F)c4)cc3)CC2)C1 [Navitoclax] (partner 0.5 µM)
How it was run: as §1

CX-5461 + Foretinib = compound: Cc1cnc(CNC(=O)c2c(=O)c3ccc(N4CCCN(C)CC4)nc3n3c2sc2ccccc23)cn1 [CX-5461] + COc1cc2c(Oc3ccc(NC(=O)C4(C(=O)Nc5ccc(F)cc5)CC4)cc3F)ccnc2cc1OCCCN1CCOCC1 [Foretinib] (partner 0.25 µM)
How it was run: as §1

Cell Line	relative viability (CX-5461 + Decitabine; first compound 0.01 µM)	relative viability (CX-5461 + Decitabine; first compound 0.03162 µM)	relative viability (CX-5461 + Decitabine; first compound 0.1 µM)	relative viability (CX-5461 + Decitabine; first compound 0.3162 µM)	relative viability (CX-5461 + Decitabine; first compound 1 µM)	relative viability (IMD-0354 + Decitabine; first compound 0.04 µM)	relative viability (IMD-0354 + Decitabine; first compound 0.1265 µM)	relative viability (IMD-0354 + Decitabine; first compound 0.4 µM)	relative viability (IMD-0354 + Decitabine; first compound 1.265 µM)	relative viability (IMD-0354 + Decitabine; first compound 4 µM)	relative viability (IMD-0354 + Navitoclax; first compound 0.04 µM)	relative viability (IMD-0354 + Navitoclax; first compound 0.1265 µM)	relative viability (IMD-0354 + Navitoclax; first compound 0.4 µM)	relative viability (IMD-0354 + Navitoclax; first compound 1.265 µM)	relative viability (IMD-0354 + Navitoclax; first compound 4 µM)	relative viability (CX-5461 + Foretinib; first compound 0.01 µM)	relative viability (CX-5461 + Foretinib; first compound 0.03162 µM)	relative viability (CX-5461 + Foretinib; first compound 0.1 µM)	relative viability (CX-5461 + Foretinib; first compound 0.3162 µM)	relative viability (CX-5461 + Foretinib; first compound 1 µM)
HCC-78	0.678	0.678	0.595	0.694	0.565	0.714	0.619	0.583	0.6	0.426	0.691	0.761	0.509	0.571	0.24	0.596	0.503	0.573	0.602	0.589
HCC-366	0.37	0.349	0.293	0.347	0.327	0.423	0.395	0.248	0.0815	0.0425	1.03	1.17	0.235	0.27	0.0258	1.03	0.913	0.924	0.756	0.931
HCC-827	0.339	0.337	0.342	0.282	0.3	0.369	0.346	0.296	0.19	0.196	0.983	0.955	0.892	0.759	0.293	1.08	1.09	1.02	1.03	1.06
HOP-62	0.243	0.23	0.171	0.191	0.207	0.217	0.226	0.208	0.17	0.0936	1.02	0.976	0.504	0.78	0.295	1.09	1.14	1.08	1.01	1.04
IA-LM	–	–	–	–	–	–	–	–	–	–	0.778	0.662	0.381	0.122	0.0656	1.21	1.12	1.14	1.07	0.885
LC-2-ad	0.805	0.867	0.809	0.795	0.79	0.876	0.698	0.5	0.322	0.199	0.408	0.395	0.199	0.0893	0.105	0.919	1.01	0.835	0.88	0.504
LCLC-97TM1	0.225	0.233	0.238	0.208	0.229	0.232	0.257	0.199	0.162	0.115	–	0.331	0.368	0.322	0.205	0.953	1.02	1	–	0.975
LCLC-103H	0.684	0.743	0.705	0.766	0.707	0.727	0.737	0.635	0.546	0.293	–	–	–	–	–	0.81	0.867	0.681	1.02	0.798
LK-2	0.329	0.278	0.302	0.162	0.279	0.292	0.315	–	0.141	0.196	1.15	0.812	–	0.777	0.247	1.17	0.942	1.26	–	1.24
LOU-NH91	0.844	0.866	0.79	0.613	0.783	0.834	0.722	0.448	0.223	0.243	0.734	0.712	0.396	0.135	0.165	1.02	1.02	0.935	–	0.942
NCI-H358	0.206	0.195	0.151	0.149	0.121	0.239	0.204	0.172	0.106	0.108	–	–	–	–	–	0.671	0.666	0.791	0.236	0.336
NCI-H522	0.763	0.641	0.671	–	0.678	0.748	0.659	0.615	0.57	0.428	–	–	–	–	–	–	–	–	–	–
NCI-H650	0.328	0.272	0.298	0.32	0.313	0.303	0.3	0.346	0.288	0.201	–	–	–	–	–	1.07	1.02	1.01	0.977	0.932
NCI-H661	0.523	0.531	0.458	0.429	0.383	0.567	0.534	0.389	0.244	0.233	–	–	–	–	–	0.928	0.98	0.985	0.497	0.673
NCI-H1299	–	–	–	–	–	–	–	–	–	–	0.981	1.08	0.259	0.442	0.146	1.06	1.06	1.09	1.06	1.11
NCI-H1563	–	–	–	–	–	–	–	–	–	–	–	–	–	–	–	0.88	0.826	0.806	0.826	0.569
NCI-H1648	0.493	0.508	0.488	0.44	0.474	0.526	0.475	0.401	0.374	0.272	–	–	–	–	–	–	–	–	–	–
NCI-H1703	–	–	–	–	–	–	–	–	–	–	1.37	1.12	0.843	0.131	0.115	0.359	0.311	0.357	0.363	0.28
NCI-H1792	0.664	0.67	0.646	0.542	0.534	0.675	0.38	0.387	0.358	0.174	0.761	0.564	1.66	0.346	0.482	–	–	–	–	–
NCI-H2228	–	–	–	–	–	–	–	–	–	–	0.738	1.12	0.589	1.27	0.355	0.691	1.03	0.763	0.747	0.13
NCI-H2342	0.686	0.699	0.734	0.691	0.586	0.728	0.707	0.601	0.656	0.5	–	–	–	–	–	0.98	1.1	1.07	1.03	1.08
SW 900	0.631	0.448	–	0.457	0.387	0.432	0.414	0.397	0.208	0.213	–	–	–	–	–	0.967	0.968	1.07	1.08	0.811
